Data reported in US4990613A, “(1R,5S,6S)-2-[(6,7-dih ydro-5H-pyrazolo[1,2-a][1,2,4]triazolium-6-yl)]thio-6-[R-1-hydroxyethyl]- 1-methyl-carbapenem-3-carboxylate and intermediate therefor” (Lederle (Japan), Ltd., priority 1987, dated 1991).

Assays:
[1] = system: Staphylococcus aureus Terajima; assay: Antibacterial test, agar plate dilution method; conditions: 37° C., 18 hours, MH agar
[2] = system: Salmonella typhimurium IID971; assay: Antibacterial test, agar plate dilution method; conditions: 37° C., 18 hours, MH agar
[3] = system: Salmonella paratyphi 1015; assay: Antibacterial test, agar plate dilution method; assay type: cell-based; conditions: 37° C., 18 hours, MH agar
[4] = system: Salmonella enteritidis G14; assay: Antibacterial test, agar plate dilution method; conditions: 37° C., 18 hours, MH agar
[5] = system: Salmonella schottmuelleri 8006; assay: Antibacterial test, agar plate dilution method; conditions: 37° C., 18 hours, MH agar
[6] = system: Pseudomonas aeruginosa NCTC 10490; assay: Antibacterial test, agar plate dilution method; conditions: 37° C., 18 hours, MH agar
[7] = system: Escherichia coli K12 C600; assay: Antibacterial test, agar plate dilution method; assay type: cell-based; conditions: 37° C., 18 hours, MH agar
[8] = system: Pseudomonas aeruginosa IFO 3445; assay: Antibacterial test, agar plate dilution method; conditions: 37° C., 18 hours, MH agar
[9] = system: Bacillus subtilis ATCC6633; assay: Antibacterial test, agar plate dilution method; conditions: 37° C., 18 hours, MH agar
[10] = system: Salmonella typhi 901; assay: Antibacterial test, agar plate dilution method; assay type: cell-based; conditions: 37° C., 18 hours, MH agar
[11] = system: Proteus mirabilis IFO3849; assay: Antibacterial test, agar plate dilution method; conditions: 37° C., 18 hours, MH agar
[12] = system: Providencia rettgeri IFO 3850; assay: Antibacterial test, agar plate dilution method; conditions: 37° C., 18 hours, MH agar
[13] = system: Proteus vulgaris OX-19; assay: Antibacterial test, agar plate dilution method; conditions: 37° C., 18 hours, MH agar
[14] = system: Serratia marcescens IAM1184; assay: Antibacterial test, agar plate dilution method; conditions: 37° C., 18 hours, MH agar
[15] = system: Enterobacter cloacae 963; assay: Antibacterial test, agar plate dilution method; conditions: 37° C., 18 hours, MH agar
[16] = system: Staphylococcus aureus MS352; assay: Antibacterial test, agar plate dilution method; conditions: 37° C., 18 hours, MH agar
[17] = system: Klebsiella pneumoniae PCI-602; assay: Antibacterial test, agar plate dilution method; conditions: 37° C., 18 hours, MH agar
[18] = system: Micrococcus luteus ATCC9341; assay: Antibacterial test, agar plate dilution method; conditions: 37° C., 18 hours, MH agar
[19] = system: Proteus vulgaris HX-19; assay: Antibacterial test, agar plate dilution method; conditions: 37° C., 18 hours, MH agar
[20] = system: Enterobacter aerougenes ATCC13048; assay: Antibacterial test, agar plate dilution method; conditions: 37° C., 18 hours, MH agar
[21] = system: Morganella morganii IFO3848; assay: Antibacterial test, agar plate dilution method; conditions: 37° C., 18 hours, MH agar
[22] = system: Serratia marcescens L-82; assay: Antibacterial activity against clinically isolated β-lactamase producing strains; assay type: cell-based; conditions: cephalosporinase producing strain, 18 to 20 hours
Protocol: (§1) A solution of a cephalosporinase producing strain stored by Episome Research Institute, which was prepared by incubating the strain in a sensitivity test broth (STB; product of Nissui K.K.) for 18 hours, was diluted with a fresh STB solution to contain 10^5 cells per milliliter and the diluted solution was then inoculated as spots with a microplanter on a sensitivity disk agar-N (SDA; product of Nissui K.K.) containing a test compound. The disk agar was then incubated for 18 to 20 hours. A minimum inhibitory concentration was determined as a minimum concentration in which the test microorganism had no longer grown after a 18 to 20 hour incubation.

[23] = system: Pseudomonas aeruginosa GN 10362; assay: as above; assay type: cell-based; conditions: cephalosporinase producing strain, 18 to 20 hours
Protocol: as §1

[24] = system: Escherichia coli GN 5482; assay: as above; assay type: cell-based; conditions: cephalosporinase producing strain, 18 to 20 hours
Protocol: as §1

[25] = system: Proteus vulgaris GN 7919; assay: as above; assay type: cell-based; conditions: cephalosporinase producing strain, 18 to 20 hours
Protocol: as §1

[26] = system: Citrobactor freundii GN 7391; assay: as above; assay type: cell-based; conditions: cephalosporinase producing strain, 18 to 20 hours
Protocol: as §1

[27] = system: Escherichia coli No. 96; assay: as above; assay type: cell-based; conditions: cephalosporinase producing strain, 18 to 20 hours
Protocol: as §1

[28] = system: Enterobacter cloacae GN 7471; assay: as above; assay type: cell-based; conditions: cephalosporinase producing strain, 18 to 20 hours
Protocol: as §1

[29] = system: Pseudomonas aeruginosa GN 10367; assay: as above; assay type: cell-based; conditions: cephalosporinase producing strain, 18 to 20 hours
Protocol: as §1

[30] = system: Serratia marcescens GN 10857; assay: as above; assay type: cell-based; conditions: cephalosporinase producing strain, 18 to 20 hours
Protocol: as §1

[31] = system: Enterobacter cloacae GN 7467; assay: as above; assay type: cell-based; conditions: cephalosporinase producing strain, 18 to 20 hours
Protocol: as §1

[32] = system: Escherichia coli No. 1501; assay: as above; assay type: cell-based; conditions: cephalosporinase producing strain, 18 to 20 hours
Protocol: as §1

[33] = system: Pseudomonas aeruginosa GN 918; assay: as above; assay type: cell-based; conditions: cephalosporinase producing strain, 18 to 20 hours
Protocol: as §1

[34] = system: Proteus morganii GN 5375; assay: as above; assay type: cell-based; conditions: cephalosporinase producing strain, 18 to 20 hours
Protocol: as §1

[35] = system: Providencia rettgeri GN 5284; assay: as above; assay type: cell-based; conditions: cephalosporinase producing strain, 18 to 20 hours
Protocol: as §1

[36] = system: Pseudomonas cepacia GN 11164; assay: as above; assay type: cell-based; conditions: cephalosporinase producing strain, 18 to 20 hours
Protocol: as §1

[37] = system: Proteus morganii GN 5307; assay: as above; assay type: cell-based; conditions: cephalosporinase producing strain, 18 to 20 hours
Protocol: as §1

[38] = system: Enterobacter cloacae GN 5797; assay: as above; assay type: cell-based; conditions: cephalosporinase producing strain, 18 to 20 hours
Protocol: as §1

[39] = system: Klebsiella oxytoca GN 10650; assay: as above; assay type: cell-based; conditions: cephalosporinase producing strain, 18 to 20 hours
Protocol: as §1

[40] = system: Providencia rettgeri GN 4430; assay: as above; assay type: cell-based; conditions: cephalosporinase producing strain, 18 to 20 hours
Protocol: as §1

[41] = system: Providencia rettgeri GN 4762; assay: as above; assay type: cell-based; conditions: cephalosporinase producing strain, 18 to 20 hours
Protocol: as §1

[42] = system: Proteus vulgaris GN 4413; assay: as above; assay type: cell-based; conditions: cephalosporinase producing strain, 18 to 20 hours
Protocol: as §1

[43] = system: Proteus morganii GN 5407; assay: as above; assay type: cell-based; conditions: cephalosporinase producing strain, 18 to 20 hours
Protocol: as §1

[44] = system: Proteus vulgaris GN 76; assay: as above; assay type: cell-based; conditions: cephalosporinase producing strain, 18 to 20 hours
Protocol: as §1

[45] = system: Citrobactor freundii GN 346; assay: as above; assay type: cell-based; conditions: cephalosporinase producing strain, 18 to 20 hours
Protocol: as §1

[46] = system: Serratia marcescens L-65; assay: as above; assay type: cell-based; conditions: cephalosporinase producing strain, 18 to 20 hours
Protocol: as §1

[47] = system: Staphylococcus aureus FDA 209P JC-1; assay: Antibacterial test, agar plate dilution method; conditions: 37° C., 18 hours, MH agar
[48] = system: Escherichia coli NIHJ JC-2; assay: Antibacterial test, agar plate dilution method; conditions: 37° C., 18 hours, MH agar
[49] = system: Streptococcus pyogenes Cook; assay: Antibacterial test, agar plate dilution method; conditions: 37° C., 18 hours, MH agar
[50] = system: Swine Kidney Dehydropeptidase-I (DHP-I); assay: Hydrolysis activity against DHP-I enzyme substrate by late assay; assay type: in vitro ADME; conditions: final substrate concentration 100 μM, 10 minutes, pH 7.1
Protocol: The swine kidney (8 kg) was homogenized and an enzyme protein was allowed to precipitate. After a connective lipid was removed with acetone, the resultant material was made soluble by treatment with butanol and purified in the order by the ammonium sulfate fraction method, thereby producing DPH-I enzyme from a 75% ammonium sulfate fraction.
The DHP-I enzyme was then adjusted to give an enzyme concentration of 25 mg/10 ml (phosphate buffer, pH 7.1), and divided into 1 ml portions. The portions were frozen and stored at -40° C. or less until use.
As control compounds were employed glycyl dehydrophenylalanine (Gl-dh-Ph) and imipenem, and they were adjusted in situ each to give the concentration of 177 μM with the same sodium phosphate buffer solution.
To 1.2 ml of a 50 mM sodium phosphate buffer solution (substrate) containing 177 μM of each of Gh-dh-Ph and imipenem as the control compounds was added 0.2 ml of the DHP-I enzyme solution (25 mg/10 ml) prepared above in the final substrate concentration of 100 μM. The solution was then incubated at […] for 10 minutes. An initial velocity of hydrolysis of the substrate was measured from a decrease in absorbency at a particular λmax of each of the substrates.
A blank test was conducted in substantially the same manner as above by adding 0.2 ml of the sodium phosphate buffer solution (pH 7.1) to 1.2 ml of the above substrate.

[51] = over a period of ten days
[52] = physchem; conditions: amorphous solid storage
[53] = system: C. freundii resistant strains; assay: Sensitivity test against clinical isolates, C. freundii resistant strains; assay type: cell-based; conditions: CFIX/CTX resistant strains
Protocol: Cefixime (CFIX) (50 to >100 μg/ml)
Cefotaxime (CTX) (50 to >100 μg/ml)
The tests were carried out in the same manner as described above Test 1.

[54] = design: species or system male mice of CrjCD(SD) type; conditions: mouse, in vivo, sc, 500 mg/kg
Protocol: Toxicological studies have been carried out using a group of 10 male mice of CrjCD(SD) type weighing from 20 to 23 grams. A solution containing the carbapenem compound (15) of the present invention obtained by Example 6 was administered subcutaneously to the mice and subjected to observations for one week.

[55] = system: P. aeruginosa resistant strains; assay: Sensitivity test against clinical isolates, P. aeruginosa resistant strains; assay type: cell-based; conditions: 54 resistant strains
Protocol: It is noted here that the 54 strains have been chosen because there have been the strains in duplicate with the agents. ______________________________________ Ceftazidime (CAZ) (25 to 100 μg/ml) 21 strains Cefsulodine (CFS) (25 to >100 μg/ml) 23 strains Piperacilin (PIPC) (25 to >100 μg/ml) 15 strains Gentamycin (GM) (25 to >100 μg/ml) 21 strains Amikacin (AMK) (25 to >100 μg/ml) 26 strains Ofloxacin (OFLX) (25 to >100 μg/ml) 4 strains ______________________________________
A minimum inhibitory concentration (MIC) was determined in substantially the same manner as the test procedures II above using the 54 strains of P. aeruginosa having an anti-Pseudomonas resistance.

(1R, 5S, 6S)-2-[4-pyrazolidinyl]thio-6-[(R)-1-hydroxyethyl]-1-methyl-carbapenem-3-carboxylic acid [Compound 14]
MIC [1]: 0.025 µg/mL
MIC [2]: 0.1 µg/mL
MIC [3]: 0.39 µg/mL
MIC [4]: 0.2 µg/mL
MIC [5]: 0.2 µg/mL
MIC [6]: 0.78 µg/mL
MIC [7]: 0.2 µg/mL
MIC [8]: 0.78 µg/mL
MIC [9]: 0.1 µg/mL
MIC [10]: 0.025 µg/mL
MIC [11]: 0.39 µg/mL
MIC [12]: 0.2 µg/mL
MIC [13]: 0.025 µg/mL
MIC [14]: 0.2 µg/mL
MIC [15]: 0.1 µg/mL
MIC [16]: 0.1 µg/mL
MIC [17]: 0.05 µg/mL
MIC [18]: 0.1 µg/mL
MIC [19]: 0.1 µg/mL
MIC [20]: 0.39 µg/mL
MIC [21]: 0.1 µg/mL
MIC [22]: 0.1 µg/mL
MIC [23]: 1.56 µg/mL
MIC [24]: 0.025 µg/mL
MIC [25]: 1.56 µg/mL
MIC [26]: 0.78 µg/mL
MIC [27]: 0.025 µg/mL
MIC [28]: 0.1 µg/mL
MIC [29]: 1.56 µg/mL
MIC [30]: 1.56 µg/mL
MIC [31]: 1.56 µg/mL
MIC [32]: 0.025 µg/mL
MIC [33]: 1.56 µg/mL
MIC [34]: 1.56 µg/mL
MIC [35]: 0.2 µg/mL
MIC [36]: 0.39 µg/mL
MIC [37]: 0.39 µg/mL
MIC [38]: 0.1 µg/mL
MIC [39]: 0.1 µg/mL
MIC [40]: 0.2 µg/mL
MIC [41]: 0.2 µg/mL
MIC [42]: 1.56 µg/mL
MIC [43]: 1.56 µg/mL
MIC [44]: 1.56 µg/mL
MIC [45]: 0.78 µg/mL
MIC [46]: 0.2 µg/mL
MIC [47]: 0.05 µg/mL
MIC [48]: 0.05 µg/mL
MIC [49]: 0.025 µg/mL

NCC(=O)NC(=Cc1ccccc1)C(=O)O [Gl-dh-Ph, glycyl dehydrophenylalanine]
initial velocity of hydrolysis against DHP-I [50]: 17.4 µM/min

C[C@@H](O)[C@H]1C(=O)N2C(C(=O)[O-])=C(SC3Cn4cnc[n+]4C3)[C@H](C)[C@H]12 (stereo partly drawn) [crystalline form]
loss of potency on storage [51]: no appreciable loss of potency

C[C@@H](O)[C@H]1C(=O)N2C(C(=O)[O-])=C(SC3Cn4cnc[n+]4C3)[C@H](C)[C@H]12 (stereo partly drawn) [amorphous form]
remaining at 240 h [52]: ~40%

C[C@@H](O)[C@H]1C(=O)N2C(C(=O)[O-])=C(SC3Cn4cnc[n+]4C3)[C@H](C)[C@H]12 (stereo partly drawn) [Compound 15, 6-[(R)-1-hydroxyethy]-1-methyl-2-(5H-pyrazolo[1,2-a]triazolinium-6-yl) thio-carbapenem-3-carboxylic acid]
test microorganisms whose growth is inhibited ([53]; concentration of 0.78 μg/ml): approximately 98%
test microorganisms whose growth is inhibited ([53]; concentration of 1.56 μg/ml): all the test microorganisms
survival and abnormal observations [54]: alive without any abnormal observations
test microorganisms whose growth is inhibited ([55]; concentration of 12.5 μg/ml): all the test microorganisms
test microorganisms whose growth is inhibited ([55]; concentration of […]): approximately 98%
